{"source": "paper PMC13110364", "about": "“Design, Synthesis, and Biological Evaluation of Novel Triazine‐Based Dual Histone Deacetylase/phosphatidylinositol 3‐kinase Inhibitors for Breast Cancer Therapy” (Chemmedchem, 2026)", "key": {"LY2 breast cancer cells": {"test_system": "LY2 breast cancer cells", "assay": "MTS cell viability assay, LY2", "assay_type": "cell-based", "settings": "72 h treatment", "protocol": "(§1) The cell viability effects of compounds 5a–5f were assessed in LY2, JIMT1, and MDA‐MB‐231 breast cancer cell lines using the 3‐(4,5‐dimethylthiazol‐2‐yl)‐5‐(3‐carboxymethoxyphenyl)‐2‐(4‐sulfophenyl)‐2H‐tetrazolium (MTS) assay. The MTS assay measures metabolic viability and serves as a first‐pass screen.\n(§2) JIMT‐1 (DSMZ ACC 589) and MDA‐MB‐231 (ATCC HTB‐26) breast cancer cell lines were maintained in Dulbecco's Modified Eagle Medium (DMEM) High Glucose with L‐glutamine (D5796, Sigma) supplemented with 10% fetal calf serum. MCF7‐derivative LY2 breast cancer cells were previously described (REF: PMID: 33420368). LY2 cells were cultured in phenol red‐free MEM (PRF‐MEM; 51 200‐046, Gibco) supplemented with 10% charcoal dextran‐stripped fetal calf serum (CDS‐FCS; F6765, Merck), 2 mmol/L L‐glutamine (G7513, Merck), and 10^−8 mol/L 4‐hydroxytamoxifen (4‐OHT; H7904, Merck). All cell lines were maintained at 37°C in a humidified incubator with 5% CO2 and regularly authenticated and tested for mycoplasma.\n(§3) Cell viability was evaluated in response to increasing concentrations of 5a‐5f (0.3, 1, 3, 10, and 30 μM) or vehicle control (0.1% DMSO). LY2, JIMT1, and MDA‐MB‐231 cells were seeded at a density of 2,500 cells per well in 96‐well plates with a total volume of 100 μL per well. Prior to treatment, cells were serum‐deprived for 24 h. Following serum depletion, cells were treated in complete growth medium for 72 h. Cell viability was assessed using the MTS assay (G1111, Promega) according to the manufacturer's instructions. Absorbance was measured at 495 nm using a BioTek Synergy HTX Multi‐Mode Microplate Reader (Agilent). Results were normalized to the vehicle control (DMSO), and the half‐maximal inhibitory concentration (IC50) of the inhibitors was determined by nonlinear regression (curve fit) using a four‐parameter variable slope model."}, "PI3Kβ": {"molecular_target": "PI3Kβ (Homo sapiens, UniProt P42338)", "sequence (P42338 whole entry, canonical isoform)": "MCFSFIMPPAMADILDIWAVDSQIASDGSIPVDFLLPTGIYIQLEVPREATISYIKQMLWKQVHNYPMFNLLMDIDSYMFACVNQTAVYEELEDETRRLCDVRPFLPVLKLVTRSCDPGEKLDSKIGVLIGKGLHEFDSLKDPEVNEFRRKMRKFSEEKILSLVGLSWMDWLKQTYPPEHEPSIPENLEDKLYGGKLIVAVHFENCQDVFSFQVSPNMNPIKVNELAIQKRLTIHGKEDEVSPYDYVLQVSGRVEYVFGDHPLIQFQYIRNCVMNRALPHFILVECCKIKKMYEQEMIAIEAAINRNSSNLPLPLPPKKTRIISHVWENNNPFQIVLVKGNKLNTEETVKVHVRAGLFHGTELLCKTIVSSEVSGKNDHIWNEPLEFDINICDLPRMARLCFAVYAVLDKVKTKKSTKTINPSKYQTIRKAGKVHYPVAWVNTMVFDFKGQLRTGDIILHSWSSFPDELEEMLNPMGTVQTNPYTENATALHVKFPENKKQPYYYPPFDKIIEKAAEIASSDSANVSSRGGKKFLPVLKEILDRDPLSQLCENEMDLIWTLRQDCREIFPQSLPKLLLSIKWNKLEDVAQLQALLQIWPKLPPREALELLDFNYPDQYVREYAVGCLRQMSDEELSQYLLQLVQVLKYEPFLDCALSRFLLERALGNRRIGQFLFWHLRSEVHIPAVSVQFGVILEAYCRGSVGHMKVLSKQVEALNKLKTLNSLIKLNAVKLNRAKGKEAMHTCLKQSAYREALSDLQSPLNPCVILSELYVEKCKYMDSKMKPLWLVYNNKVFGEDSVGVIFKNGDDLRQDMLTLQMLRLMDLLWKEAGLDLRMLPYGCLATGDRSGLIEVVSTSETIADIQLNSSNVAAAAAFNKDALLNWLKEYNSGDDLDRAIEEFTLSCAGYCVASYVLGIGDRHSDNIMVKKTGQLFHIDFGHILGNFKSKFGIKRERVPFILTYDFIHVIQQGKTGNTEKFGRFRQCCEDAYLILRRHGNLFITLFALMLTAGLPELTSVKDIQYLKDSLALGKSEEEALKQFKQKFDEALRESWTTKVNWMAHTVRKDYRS", "sequence (P27986 whole entry partner, canonical isoform)": "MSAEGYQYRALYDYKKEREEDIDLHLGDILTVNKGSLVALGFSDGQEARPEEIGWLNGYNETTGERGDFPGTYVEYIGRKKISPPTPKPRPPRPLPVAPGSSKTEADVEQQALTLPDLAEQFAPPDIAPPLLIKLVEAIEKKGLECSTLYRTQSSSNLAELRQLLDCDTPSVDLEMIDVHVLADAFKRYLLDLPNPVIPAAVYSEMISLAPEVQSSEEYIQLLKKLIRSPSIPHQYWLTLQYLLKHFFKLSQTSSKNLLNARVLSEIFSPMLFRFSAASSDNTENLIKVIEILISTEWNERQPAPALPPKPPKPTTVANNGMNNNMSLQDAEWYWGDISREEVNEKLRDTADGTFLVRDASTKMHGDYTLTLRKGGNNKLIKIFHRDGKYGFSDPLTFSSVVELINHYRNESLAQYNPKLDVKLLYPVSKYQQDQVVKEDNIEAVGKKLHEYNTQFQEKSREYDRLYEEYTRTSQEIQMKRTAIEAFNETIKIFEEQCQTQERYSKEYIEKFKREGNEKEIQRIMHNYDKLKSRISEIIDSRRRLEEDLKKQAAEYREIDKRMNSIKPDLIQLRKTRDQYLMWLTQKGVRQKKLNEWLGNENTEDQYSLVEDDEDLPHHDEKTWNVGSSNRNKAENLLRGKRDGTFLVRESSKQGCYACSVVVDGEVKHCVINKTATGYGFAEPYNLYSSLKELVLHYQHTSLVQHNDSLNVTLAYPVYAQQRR", "assay": "Selectivity profile, single dose 0.5 µM, PI3Kβ", "assay_type": "biochemical", "settings": "remaining enzyme activity; single‐dose duplicate mode at 0.5 μM; read-out: Enzyme % activity (relative to DMSO controls) at 0.5 µM, PI3Kβ", "protocol": "(§4) The inhibitory profiles of 5b and 5f were evaluated against selected HDAC isoforms (HDAC1, HDAC3, HDAC4, HDAC8, and HDAC10) and PI3K isoforms (PI3Kδ, PI3Kγ, and PI3Kβ) at a fixed concentration of 0.5 µM (Table 3). […] While we explored the phenyl ring in the linker region to achieve selectivity for the HDAC6 isoform, we still observed HDAC class I inhibition. […] It is important to highlight that PI3Kδ is mainly expressed in hematopoietic system and plays roles in leukocyte signaling, T‐cell activation, and immune cell trafficking. FDA‐approved drug idelalisib is a selective PI3Kδ inhibitor in B‐cell malignancies; however, this drug is also related to disruption of the immune system, which can lead to immune manifestations, such as infections. In addition, while isoform‐selective PI3K inhibitors are well tolerated, pan‐inhibition of PI3K is less expected that compensatory mechanisms by the action of other PI3Ks can take place. Thus, a more balanced profile of PI3K inhibition can lead to an overall lack of toxicity of PI3K inhibitors."}, "PI3Kδ": {"molecular_target": "PI3Kδ (Homo sapiens, UniProt O00329)", "sequence (O00329 whole entry)": "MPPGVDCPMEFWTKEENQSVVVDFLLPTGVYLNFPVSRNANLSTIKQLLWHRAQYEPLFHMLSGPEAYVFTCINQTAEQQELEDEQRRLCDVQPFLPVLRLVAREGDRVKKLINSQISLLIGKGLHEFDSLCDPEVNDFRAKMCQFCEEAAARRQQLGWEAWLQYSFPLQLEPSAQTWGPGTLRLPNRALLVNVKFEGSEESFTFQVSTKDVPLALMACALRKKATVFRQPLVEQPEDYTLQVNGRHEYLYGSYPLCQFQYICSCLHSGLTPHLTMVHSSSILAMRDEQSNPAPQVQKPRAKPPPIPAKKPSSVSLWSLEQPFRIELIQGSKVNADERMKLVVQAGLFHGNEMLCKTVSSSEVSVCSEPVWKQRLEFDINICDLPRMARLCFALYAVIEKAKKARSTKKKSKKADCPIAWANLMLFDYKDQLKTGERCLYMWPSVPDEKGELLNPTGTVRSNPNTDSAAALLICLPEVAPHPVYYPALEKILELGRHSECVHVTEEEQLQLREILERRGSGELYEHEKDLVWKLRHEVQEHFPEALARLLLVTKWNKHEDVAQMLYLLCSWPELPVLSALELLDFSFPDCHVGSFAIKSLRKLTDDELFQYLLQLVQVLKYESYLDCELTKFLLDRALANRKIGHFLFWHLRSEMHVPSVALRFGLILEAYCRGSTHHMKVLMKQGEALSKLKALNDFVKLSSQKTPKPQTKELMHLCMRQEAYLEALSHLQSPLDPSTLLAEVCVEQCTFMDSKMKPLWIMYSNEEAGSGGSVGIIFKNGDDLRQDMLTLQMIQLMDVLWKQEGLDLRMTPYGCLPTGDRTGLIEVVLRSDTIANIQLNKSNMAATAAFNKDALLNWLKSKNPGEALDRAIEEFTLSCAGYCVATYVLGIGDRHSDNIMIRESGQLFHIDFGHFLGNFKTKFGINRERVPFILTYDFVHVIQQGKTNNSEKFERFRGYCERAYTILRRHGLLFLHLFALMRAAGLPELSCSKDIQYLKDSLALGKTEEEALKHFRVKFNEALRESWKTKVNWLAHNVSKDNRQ", "sequence (P27986 whole entry partner)": "as the sequence (P27986 whole entry partner, canonical isoform) above", "assay": "Selectivity profile, single dose 0.5 µM, PI3Kδ", "assay_type": "biochemical", "settings": "remaining enzyme activity; single‐dose duplicate mode at 0.5 μM; read-out: Enzyme % activity (relative to DMSO controls) at 0.5 µM, PI3Kδ", "protocol": "as §4"}, "HDAC4": {"molecular_target": "HDAC4 (Homo sapiens, UniProt P56524)", "assay": "Selectivity profile, single dose 0.5 µM, HDAC4", "assay_type": "biochemical", "settings": "remaining enzyme activity; single‐dose duplicate mode at 0.5 μM; read-out: Enzyme % activity (relative to DMSO controls) at 0.5 µM, HDAC4", "protocol": "as §4"}, "[1]": {"test_system": "JIMT1 breast cancer cells", "assay": "MTS cell viability assay, JIMT1", "assay_type": "cell-based", "settings": "Homo sapiens, JIMT-1, 72 h treatment", "protocol": "as §1, §2, §3"}, "[2]": {"test_system": "MDA‐MB‐231 triple‐negative breast cancer cell line", "assay": "MTS cell viability assay, MDA-MB-231", "assay_type": "cell-based", "settings": "MDA‐MB‐231 cells, 72 h treatment", "protocol": "as §1, §2, §3"}, "HDAC8": {"molecular_target": "HDAC8 (Homo sapiens, UniProt Q9BY41)", "sequence (Q9BY41 whole entry)": "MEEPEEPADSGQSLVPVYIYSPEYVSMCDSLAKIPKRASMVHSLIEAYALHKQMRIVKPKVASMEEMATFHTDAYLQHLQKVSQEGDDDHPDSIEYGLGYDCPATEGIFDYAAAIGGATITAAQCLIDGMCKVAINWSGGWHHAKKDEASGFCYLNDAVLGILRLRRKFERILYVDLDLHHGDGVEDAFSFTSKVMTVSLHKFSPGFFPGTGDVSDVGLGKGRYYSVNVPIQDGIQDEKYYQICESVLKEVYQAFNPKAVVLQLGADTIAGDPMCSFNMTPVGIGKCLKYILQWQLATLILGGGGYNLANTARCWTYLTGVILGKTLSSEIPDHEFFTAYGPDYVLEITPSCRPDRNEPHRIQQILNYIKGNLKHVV", "assay": "Selectivity profile, single dose 0.5 µM, HDAC8", "assay_type": "biochemical", "settings": "remaining enzyme activity; single‐dose duplicate mode at 0.5 μM; read-out: Enzyme % activity (relative to DMSO controls) at 0.5 µM, HDAC8", "protocol": "as §4"}, "HDAC6": {"molecular_target": "HDAC6 (Homo sapiens, UniProt Q9UBN7)", "sequence (Q9UBN7 whole entry)": "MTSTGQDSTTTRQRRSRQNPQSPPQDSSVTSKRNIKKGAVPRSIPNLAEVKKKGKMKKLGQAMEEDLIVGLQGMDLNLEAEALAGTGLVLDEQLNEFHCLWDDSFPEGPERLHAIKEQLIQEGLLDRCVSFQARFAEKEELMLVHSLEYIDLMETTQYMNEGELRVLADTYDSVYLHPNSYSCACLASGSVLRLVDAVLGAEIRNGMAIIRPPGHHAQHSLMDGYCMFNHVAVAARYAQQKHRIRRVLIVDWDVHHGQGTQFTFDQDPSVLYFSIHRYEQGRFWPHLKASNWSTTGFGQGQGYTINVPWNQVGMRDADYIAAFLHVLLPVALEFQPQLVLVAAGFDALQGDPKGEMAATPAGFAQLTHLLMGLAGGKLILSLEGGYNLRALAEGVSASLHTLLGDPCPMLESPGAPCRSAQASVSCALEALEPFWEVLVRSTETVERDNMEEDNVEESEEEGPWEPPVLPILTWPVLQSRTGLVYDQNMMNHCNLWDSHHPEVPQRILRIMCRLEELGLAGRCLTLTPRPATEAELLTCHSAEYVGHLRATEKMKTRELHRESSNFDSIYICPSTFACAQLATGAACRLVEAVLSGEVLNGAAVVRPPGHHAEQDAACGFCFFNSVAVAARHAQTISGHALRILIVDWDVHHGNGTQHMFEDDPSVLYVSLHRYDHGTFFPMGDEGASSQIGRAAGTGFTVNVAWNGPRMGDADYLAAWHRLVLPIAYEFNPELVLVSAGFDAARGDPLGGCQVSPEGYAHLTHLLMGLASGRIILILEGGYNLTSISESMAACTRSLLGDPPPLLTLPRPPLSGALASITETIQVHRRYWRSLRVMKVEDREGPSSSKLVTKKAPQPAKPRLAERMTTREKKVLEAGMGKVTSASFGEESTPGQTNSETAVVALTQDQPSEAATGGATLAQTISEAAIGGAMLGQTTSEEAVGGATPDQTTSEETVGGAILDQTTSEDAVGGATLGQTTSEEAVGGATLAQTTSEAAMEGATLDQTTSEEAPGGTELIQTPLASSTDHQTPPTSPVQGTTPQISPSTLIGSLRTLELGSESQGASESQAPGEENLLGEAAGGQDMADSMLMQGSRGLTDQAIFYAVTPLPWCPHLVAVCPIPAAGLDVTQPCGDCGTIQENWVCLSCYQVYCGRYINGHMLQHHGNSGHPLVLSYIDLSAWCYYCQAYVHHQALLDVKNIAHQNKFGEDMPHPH", "assay": "HDAC6 inhibition, 10-dose IC50 (Reaction Biology Corporation)", "assay_type": "biochemical", "settings": "10‐dose IC50 mode, threefold serial dilutions starting at 1 μM"}}, "note": "Where “and” joins values, the source holds several entries; their conditions need not be identical. Identical values can stand only once."}
{"smiles": "O=C(NO)c1ccc(CNc2nc(-c3cccc(O)c3)nc(N3CCOCC3)n2)cc1", "note": "[Compound 5b, N‐Hydroxy‐4‐(((4‐(3‐Hydroxyphenyl)‐6‐Morpholino‐1,3,5‐Triazin‐2‐yl)Amino)Methyl)Benzamide]", "values": [{"measurement": "IC50", "setting": "LY2 breast cancer cells", "value": "4.68 ± 1.34", "unit": "µM"}, {"measurement": "remaining activity at 0.5 µM", "setting": "PI3Kβ", "value": 40.1, "unit": "%"}, {"measurement": "remaining activity at 0.5 µM", "setting": "PI3Kδ", "value": 8.24, "unit": "%"}, {"measurement": "remaining activity at 0.5 µM", "setting": "HDAC4", "value": 89, "unit": "%"}, {"measurement": "IC50", "setting": "[1]", "value": "5.72 ± 0.76", "unit": "µM"}, {"measurement": "IC50", "setting": "[2]; Homo sapiens, MDA-MB-231, 72 h", "value": "< 5", "unit": "µM"}, {"measurement": "IC50", "setting": "[2]", "value": "4.4 ± 0.54", "unit": "µM"}, {"measurement": "remaining activity at 0.5 µM", "setting": "HDAC8", "value": 46.3, "unit": "%"}, {"measurement": "IC50", "setting": "HDAC6", "value": "2.33 nM and 2.3 nM"}]}
{"smiles": "COc1ccc(-c2nc(NCc3ccc(C(=O)NO)cc3)nc(N3CCOCC3)n2)cn1", "note": "[Compound 5f, N‐Hydroxy‐4‐(((4‐(6‐Methoxypyridin‐3‐yl)‐6‐Morpholino‐1,3,5‐Triazin‐2‐yl)Amino)Methyl)Benzamide]", "values": [{"measurement": "IC50", "setting": "LY2 breast cancer cells", "value": "8.81 ± 0.59", "unit": "µM"}, {"measurement": "remaining activity at 0.5 µM", "setting": "PI3Kβ", "value": 86.9, "unit": "%"}, {"measurement": "remaining activity at 0.5 µM", "setting": "PI3Kδ", "value": 59.2, "unit": "%"}, {"measurement": "remaining activity at 0.5 µM", "setting": "HDAC4", "value": 98.4, "unit": "%"}, {"measurement": "IC50", "setting": "[1]", "value": "3.5 ± 0.95", "unit": "µM"}, {"measurement": "IC50", "setting": "[2]; Homo sapiens, MDA-MB-231, 72 h", "value": "< 5", "unit": "µM"}, {"measurement": "IC50", "setting": "[2]", "value": "3.3 ± 0.13", "unit": "µM"}, {"measurement": "remaining activity at 0.5 µM", "setting": "HDAC8", "value": 46.9, "unit": "%"}, {"measurement": "IC50", "setting": "HDAC6", "value": "6.02 nM and 6 nM"}]}
